*1 amine or outer side, *2 acyl side, *3 side chain or, on linkers, in order; H or OH if unused. Where a SMILES comes first, the peptide text is derived from it. Bridges are numbered along the chain shown (N, C = ends). Roman numbers before positions name the chains, in order. [ ]: non-standard residue; d: D form. Actinocin(9to1) = Cc1c2oc3c(C)ccc(C(=O)[*:1])c3nc-2c(C(=O)[*:2])c(N)c1=O; NMeV = CN[C@H](C(=O)O)C(C)C; Sar = CNCC(=O)O
What was measured:
interferon response [1] = conditions: pretreatment of the cells; cited from earlier work
interferon response [2] = test system: interferon response

Cc1c2oc3c(C)ccc(C(=O)N[C@@H]4C(=O)N[C@H](C(C)C)C(=O)N5CCC[C@H]5C(=O)N(C)CC(=O)N(C)[C@@H](C(C)C)C(=O)O[C@@H]4C)c3nc-2c(C(=O)N[C@@H]2C(=O)N[C@H](C(C)C)C(=O)N3CCC[C@H]3C(=O)N(C)CC(=O)N(C)[C@@H](C(C)C)C(=O)O[C@@H]2C)c(N)c1=O [actinomycin D] (I: T[dV]P[Sar][NMeV] / II: T[dV]P[Sar][NMeV]; ester I:1-I:C, II:1-II:C; linker I:N-II:N via Actinocin(9to1))
effect on interferon response (interferon response [1]): blocks the interferon response | effect on virus yield relative to control cultures (interferon response [2]): substantial increase in virus yield | toxicity to the cells (interferon response [2]): relatively toxic to the cells

— patent EP1002054B1, “PROCESS FOR THE PRODUCTION OF VIRUS IN CELL CULTURES” (priority 1998, dated 1999)
